Experimental data: patent publication US10961242B2, “Compounds as autotaxin inhibitors and pharmaceutical compositions comprising the same” (LegoChem Biosciences, Inc., priority 2018, dated 2021)
Read-outs that look alike come from different tables or passages of the source.

Assays:
[1] = target: human ENPP2 (Homo sapiens (Human), UniProt Q13822); assay: Inhibitory activity on human ENPP2 (FS-3 assay); type: biochemical
Description: Two-fold dilution of each test compound solution (10 μM, 100% dimethyl sulfoxide) is carried out on 96-well V bottom plate (Costar 3363). After ten-fold dilution of each the test compound solution (100% dimethyl sulfoxide) with deionized distilled water, 10 μL of the diluted each mpound solution (10% dimethyl sulfoxide) was aliquoted to a black flat bottom 96-well plate (Costar 3915).

[2] = target: human ATX (Homo sapiens (Human), UniProt Q13822); assay: Bis-pNPP assay; type: biochemical; conditions: bis-pNPP substrate, read-out: Enzymatic assay (IC50) bis-pNPP
Description: Eight-fold dilution of each test compound solution (10 μM, 100% dimethyl sulfoxide) is carried out on 96-well V bottom plate (Costar 3363). After […] of each test compound solution (100% dimethyl sulfoxide) with deionized distilled water, 10 μL of the diluted each test compound solution (10% dimethyl sulfoxide) was aliquoted to a black flat bottom 96-well plate (Costar 3915). 50 μL of 60 mM Tris-HCl (pH9.0) buffer was added thereto, and subsequently 20 μL of 3.75 nM human ATX solution (buffer solution: 50 mM Tris-HCl (pH8.5), 5 mM CaCl2, 2.5 mM MgCl2, 0.01% Brij35) and 20 μL of 25 mM Bis-pNPP (bis(p-Nitrophenyl)-phosphate sodium salt) solution (buffer solution: 50 mM Tris-HCl (pH9.0)) were added thereto, respectively, followed by mixing. […] Furthermore, IC50 values that are shown in Table 3 were calculated using Grafit5 Software based on the inhibitory activity percentage ratio.

[3] = tested on: LPA production in mouse plasma; assay: Ex-vivo assay (LPC assay) in mouse plasma; type: biochemical; conditions: LPA 18:1
Description: (§1) After 100-fold dilution of each test compound solution (5 μL) (10 mM, 100%, dimethyl sulfoxide) with 495 μL of methanol, 3 μL of the diluted methanol solution (1% dimethyl sulfoxide) was mixed with 57 μL of human or mouse blood serum solution in a 1.5 mL tube. The mixed test compound solution was serially diluted, 12 μL for each, with 48 μL of 100% blood serum to have 5 different concentrations, and each tube was kept for 15 minutes in a water bath with constant temperature of 37° C. Subsequently, a solution prepared by diluting 10 mg/mL 18:1 LPC solution (50% ethanol) with blood serum to have concentration of 375 μg/mL was aliquoted in an amount of 2 μL to each tube so as to have 50 μL. Each tube was kept for 3 hours in a water bath at 37° C. to allow a reaction. To the tube obtained after the reaction, 100 μL of 0.5 μM 17:0 LPA solution (chloroform/methanol/water=65/35/8) was aliquoted and mixed therein. Centrifuge was carried out for 10 minutes using a centrifuge at conditions of 14,000 rpm and 4° C. 100 μL of 50% methanol solution is aliquoted first to a 96-well polypropylene plate (Agilent Technology 5042-1385), and the supernatant (50 μL) in a tube after the centrifuge was carefully transferred to the plate followed by mixing. After covering it with Well cap (Thermo 276011), analysis was carried out by LC-MS/MS (Agilent 1260).
The test was carried out in the same process as Test example 2 to obtain the IC50 values in the following table 4.

[4] = Microsomal stability, human liver microsomes; type: in vitro ADME; conditions: both sexes, pH 7.4; human liver microsomes (h), 0.5 mg/mL, NADPH regenerating system; read-out: MS (microsomal stability) t1/2
Description: (§2) A 2.5 mM stock solution of test compound in DMSO is diluted to 25 uM with 100 mM potassium phosphate buffer (pH 7.4) containing 5 mM EDTA. This solution was mixed with reaction mixtures (final concentration 1 μM). The incubation mixtures (final volume 700 μL) of test compound with liver microsomes [Xenotech; rat (male SD), human (mixed gender)] consisted of liver microsomes (0.5 mg/mL), substrate (Compound 4, […]), NADPH regenerating system (1.3 mM NADP+, 3.3 mM Glucose-6-phosphate, 3.3 mM MgCl2, 0.4 U/ml Glucose-6-phosphate dehydrogenase) in 81.3 mM potassium phosphate buffer (pH 7.4) containing 1 mM EDTA in duplicates. The reaction was initiated by addition of the NADPH regenerating system after preincubation at 37° C. for 10 min with test compounds. 100 uL of aliquot of the sample was removed at 0, 5, 10, 20, 30 and 60 min. The reaction was stopped by addition of 200 uL of acetonitrile containing internal standard (0.3 uM of Dextromethorphan). Each sample was mixed and centrifuged at 14000 rpm for 10 min. The resulting supernatant was analyzed by the LC-MS/MS method for determination of loss of parent compound. % parent remaining was calculated at 6 point time testing was done for T½ determination.

[5] = Microsomal stability, rat liver microsomes; type: in vitro ADME; conditions: male, SD, pH 7.4; rat liver microsomes (r), 0.5 mg/mL, NADPH regenerating system; read-out: MS (microsomal stability) t1/2
Description: as §2

[6] = tested on: LPA production in blood serum caused by autotoxin; assay: Inhibitory activity on LPA production in mouse blood serum; type: biochemical; conditions: mouse blood serum (m), 18:1 LPC, 3 hours at 37° C.
Description: as §1, with “The mixed test compound solution was serially diluted, 12 μL for each, with 48 μL of 100% blood serum to have 5 different concentrations, and each tube was kept for 15 minutes in a water bath with constant temperature of 37° C.” left out
(§3) In the following Table 3, the mouse blood serum was described as (m) and human blood serum was described as (h).

[7] = tested on: LPA production in blood serum caused by autotoxin; assay: Inhibitory activity on LPA production in human blood serum; type: biochemical; conditions: human blood serum (h), 18:1 LPC, 3 hours at 37° C.
Description: as §1, with “The mixed test compound solution was serially diluted, 12 μL for each, with 48 μL of 100% blood serum to have 5 different concentrations, and each tube was kept for 15 minutes in a water bath with constant temperature of 37° C.” left out
as §3

[8] = FS-3 assay, same process as Test example 1, read-out: Enzymatic assay (IC50) FS-3

Row | Structure (SMILES) | IC50 [1, 8] [nM] | IC50 [2] [nM] | IC50 [3] [nM] | half-life at 1 µM [4] [min] | half-life at 1 µM [5] [min] | IC50 ([1]; human ENPP2, FS-3 substrate, 30 min at 37° C., read-out: IC50) [nM] | IC50 [6] [nM] | IC50 [7] [nM]
1 | O=C(Cn1cc(-c2cnc(NC3Cc4ccccc4C3)nc2)c(-c2ccccn2)n1)N1CCc2[nH]nnc2C1 [Compound 116, 2-(4-{2-[(2,3-dihydro-1H-inden-2-yl)amino]pyrimidin-5-yl}-3-(pyridin-2-yl)-1H-pyrazol-1-yl)-1-{1H,4H,5H,6H,7H-[1,2,3]triazolo[4,5-c]pyridin-5-yl}ethan-1-one] | < 1.56 | < 1.56 | 7.1 | 33 | 25.2 ± 0.69 | – | – | –
2 | O=C(Cc1nnc(-c2cnc(NC3CC=C(c4cccc(Cl)c4)CC3)nc2)o1)N1CCc2[nH]nnc2C1 (stereo not drawn) [Compound 35, 2-[5-(2-{[4-(3-chlorophenyl)cyclohex-3-en-1-yl]amino}pyrimidin-5-yl)-1,3,4-oxadiazol-2-yl]-1-{1H,4H,5H,6H,7H-[1,2,3]triazolo[4,5-c]pyridin-5-yl}ethan-1-one] | – | – | – | – | – | 2.4 | 46 | 99
3 | O=C(Cn1cc(-c2cnc(NC3Cc4ccccc4C3)nc2)c(NC2CCC2)n1)N1CCc2[nH]nnc2C1 [Compound 100, 2-[3-(cyclobutylamino)-4-{2-[(2,3-dihydro-1H-inden-2-yl)amino]pyrimidin-5-yl}-1H-pyrazol-1-yl]-1-{1H,4H,5H,6H,7H-[1,2,3]triazolo[4,5-c]pyridin-5-yl}ethan-1-one] | 1.74 | 3.6 | – | 16.4 | 10.3 ± 0.72 | – | – | –
4 | O=C(Cn1cc(-c2cnc(NC3Cc4ccccc4C3)nc2)c(-c2ccncc2)n1)N1CCc2[nH]nnc2C1 [Compound 96, 2-(4-{2-[(2,3-dihydro-1H-inden-2-yl)amino]pyrimidin-5-yl}-3-(pyridin-4-yl)-1H-pyrazol-1-yl)-1-{1H,4H,5H,6H,7H-[1,2,3]triazolo[4,5-c]pyridin-5-yl}ethan-1-one] | 2.02 | < 1.56 | 3.65 | 22.2 | 30 ± 1.57 | – | – | –
5 | O=C(CO)N1CCN(C(=O)Cn2cc(-c3cnc(NC4Cc5ccccc5C4)nc3)c(-c3ccncc3)n2)CC1 [Compound 115, 1-{4-[2-(4-{2-[(2,3-dihydro-1H-inden-2-yl)amino]pyrimidin-5-yl}-3-(pyridin-4-yl)-1H-pyrazol-1-yl)acetyl]piperazin-1-yl}-2-hydroxyethan-1-one] | 3.04 | 66.8 | 125 | > 60 | > 60 | – | – | –
6 | O=C(Cn1cc(-c2cnc(NC3Cc4ccccc4C3)nc2)c(C2CCNCC2)n1)N1CCc2[nH]nnc2C1 [Compound 98, 2-(4-{2-[(2,3-dihydro-1H-inden-2-yl)amino]pyrimidin-5-yl}-3-(piperidin-4-yl)-1H-pyrazol-1-yl)-1-{1H,4H,5H,6H,7H-[1,2,3]triazolo[4,5-c]pyridin-5-yl}ethan-1-one] | 9.39 | < 1.56 | – | > 60 | > 60 | – | – | –
7 | CCN(CC)c1nn(CC(=O)N2CCc3[nH]nnc3C2)cc1-c1cnc(NC2Cc3ccccc3C2)nc1 [Compound 106, 2-[3-(diethylamino)-4-{2-[(2,3-dihydro-1H-inden-2-yl)amino]pyrimidin-5-yl}-1H-pyrazol-1-yl]-1-{1H,4H,5H,6H,7H-[1,2,3]triazolo[4,5-c]pyridin-5-yl}ethan-1-one] | 2.57 | 2.27 | – | 4.2 | 3.9 ± 0.03 | – | – | –
